Tests used:
[1] = Variable temperature NMR (vt-NMR) of amide protons in CDCl3; type: physicochemical; settings: CDCl3, 298–328 K
Source text: With this premise, we performed NMR studies to quantify the HBD solvent exposure of the amide protons using the HBD Acidity NMR score (ANMR)[47] and variable temperature studies (vt-NMR).[48] To note, although vt-NMR has originally been developed and applied to the study of peptides,[49] it is, together with the ANMR value, a well-established method for studying the intramolecular hydrogen bonding (IMHB) patterns in systems such as PROTACs[10],[12],[18],[26] as well as in ferrocene structures.[29],[50]−[53] […]
(§1) Standard NMR experiments were performed at 298 K, while variable-temperature NMR experiments recorded spectra across a temperature range from 298 K to 328 K allowing a sufficient temperature equilibration time (10–15 min) before signal acquisition. All NOESY spectra for conformational analysis as well as the assignment spectra in methanol-d 4 were recorded on a 500 MHz Bruker Avance III equipped with a 5 mm QCI cryogenic probe. NOESY spectra were obtained from a sample at 1.25 mM in CDCl3 and 1.25 mM in methanol-d4, recorded at 298 K, using 16 transients, 1024 points in the direct dimension and 512 points in the indirect dimension, a relaxation delay of 1.5 s, and a mixing time of 700 ms. All other spectra used for signal assignment in CDCl3 were recorded on 500 MHz Bruker Avance NEO with a BBFO SmartProbe. […]

[2] = HBD acidity NMR score (ANMR), amide NH shifts in CDCl3 vs DMSO-d6; type: physicochemical
Source text: With this premise, we performed NMR studies to quantify the HBD solvent exposure of the amide protons using the HBD Acidity NMR score (ANMR)[47] and variable temperature studies (vt-NMR).[48] To note, although vt-NMR has originally been developed and applied to the study of peptides,[49] it is, together with the ANMR value, a well-established method for studying the intramolecular hydrogen bonding (IMHB) patterns in systems such as PROTACs[10],[12],[18],[26] as well as in ferrocene structures.[29],[50]−[53]
Considering the assumed flexibility of the ferrocene moiety, we anticipated the amide protons in AS4 next to the ferrocene moiety, i.e., N(3)-H and N(4)-H, to show greater shielding effects in CDCl3 as compared to DMSO-d6, consistently with a preference for the cis conformation. In contrast, in the presence of a strong hydrogen-bond acceptor solvent such as DMSO-d6, the intercalation of polar solvent molecules is likely to disrupt the IMHB, favoring an expanded trans conformation[50] of the substituent chains (Figure 4A). An initial analysis of the ^1H NMR spectra was obtained on samples in deuterated CDCl3 and DMSO-d6. […]
The chemical shift difference between the two solvents (Δδ) can be converted into hydrogen bond acidity (ANMR) for a quantitative assessment of IMHB. […]
as §1

- temperature coefficient Δδ/ΔT N(1)-H [1]: −3.52 ppb/K
- temperature coefficient Δδ/ΔT N(2)-H [1]: −1.57 ppb/K
- ANMR N(1)-H [2]: 0.16
- Δδ N(1)-H [2]: 1.16 ppm
- Δδ N(2)-H [2]: 0.15 ppm
Structure (SMILES): Cc1ncsc1-c1ccc(CNC(=O)[C@@H]2C[C@@H](O)CN2C(=O)[C@@H](NC(=O)CCCCCOCCOCCCCCC(=O)Nc2cccc3c2C(=O)N(C2CCC(=O)NC2=O)C3=O)C(C)(C)C)cc1 (some centres unmarked) [14a]

— article PMC12022980, “Rational Design of PROTAC Linkers Featuring Ferrocene as a Molecular Hinge to Enable Dynamic Conformational Changes” (Journal of the American Chemical Society, 2025)
